Numbering of substitutions follows the chain as printed. Like-named read-outs stand apart in the source and are kept apart here.
Legend:
SENP1-C603A = target: T1, SENP1-C603A (Homo sapiens, UniProt Q9P0U3, C603A); assay: In vitro thermal shift assay with mutant SENP1-C603A; assay type: binding; settings: purified mutant SENP1-C603A
T1 construct: made in house; host or cells: E. coli implied (pGEX-4T1 vector)
T1 sequence (Q9P0U3 1-644 C603A): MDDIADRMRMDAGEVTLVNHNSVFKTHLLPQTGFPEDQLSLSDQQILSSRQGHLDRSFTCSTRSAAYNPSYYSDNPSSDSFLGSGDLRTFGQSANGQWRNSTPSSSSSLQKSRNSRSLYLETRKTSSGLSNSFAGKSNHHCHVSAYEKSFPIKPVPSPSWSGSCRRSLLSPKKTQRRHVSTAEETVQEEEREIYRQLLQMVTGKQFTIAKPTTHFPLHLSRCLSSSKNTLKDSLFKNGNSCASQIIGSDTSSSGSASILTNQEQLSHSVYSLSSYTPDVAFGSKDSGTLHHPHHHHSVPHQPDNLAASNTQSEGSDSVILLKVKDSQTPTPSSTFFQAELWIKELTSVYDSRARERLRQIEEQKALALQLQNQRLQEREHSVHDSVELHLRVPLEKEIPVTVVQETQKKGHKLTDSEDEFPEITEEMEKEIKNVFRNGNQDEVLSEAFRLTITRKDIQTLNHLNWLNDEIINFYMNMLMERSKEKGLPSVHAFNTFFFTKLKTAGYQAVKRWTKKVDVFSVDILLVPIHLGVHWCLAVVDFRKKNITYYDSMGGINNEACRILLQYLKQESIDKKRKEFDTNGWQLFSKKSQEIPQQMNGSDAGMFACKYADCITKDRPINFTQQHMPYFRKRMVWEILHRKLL

SENP1 = target: T2, SENP1 (Homo sapiens, UniProt Q9P0U3); assay: In vitro deSUMOylation assay with recombinant His-JAK2 and GST-SENP1; assay type: biochemical; parameters: made in house; host or cells: E. coli BL21 (DE3) for pET28a-JAK2
T2 sequence (Q9P0U3 1-644): T1 sequence (Q9P0U3 1-644 C603A) with A603C
Procedure: To further determine whether SENP1 can directly deSUMOylate JAK2, in vitro deSUMOylation assays were performed by using purified recombinant His-JAK2 and GST-SENP1 proteins.
In vitro SUMOylation assay. The SUMOylation reactions were performed according to the manufacture's instruction (BML-UW8955-0001; ENZO). Briefly, 200 nM of purified HIS-JAK2 was suspended in reaction buffer (20 μl) containing Mg-ATP, SUMO E1, SUMO E2 and recombinant SUMOs. RanGAP1 (provided in the kit) was used as the substrate for positive control. The reaction was incubated at 37° C. for 60 minutes and terminated by using 20 μl of SDS loading buffer. […] The reactions were then subjected to Western blot to evaluate SUMOylation level.
Protein expression and purification. pET28a-JAK2 and its mutant was transformed in BL21 (DE3) E. coli cells by heat shot method at 42° C. and grown in Luria Broth (LB) at 37° C. E. coli cells were induced with 0.5 mM IPTG to induct protein expression. Cells were harvested by centrifugation at 5,000 g, 4° C. for 15 min and the pellet was resuspended in lysis buffer (20 mM Tris pH 7.9, 500 mM NaCl, 5 mM imidazole, 2 mM DTT and 1× protease inhibitor cocktail). Cells were then sonicated and centrifuged at 14,000 g, 4° C. for 15 min. 1 ml of Ni-NTA was added to the supernatant and incubated at 4° C. with end-to-end mixing for 2 hours and subjected to a column. The Ni-NTA resin was washed with 10 ml wash buffer (20 mM Tris pH 7.9, 250 mM NaCl, 15 mM Imidazole and 0.5 mM DTT) and eluted with 1 ml elution buffer (20 mM Tris pH 7.9, 250 mM NaCl and 1 M imidazole). The elute was then concentrated by using a protein concentrator (Thermo Scientific™ Pierce™) and resuspend in dialysis buffer (50 mM Tris pH 7.9, 50 mM NaCl, 2 mM DTT, and 10% glycerol). The purified protein was stored at −80° C. pGEX-4T1-SENP1 and its mutant were purified using following buffers: lysis buffer (1 mM DTT, and lx protease inhibitor cocktail, 800 mM NaCl, 5 mM EDTA, 50 mM Tris-pH8.0, 0.1% Triton x-100), wash buffer (800 mM NaCl, 5 mM EDTA, 50 mM Tris-pH8.0, 0.1% Triton x-100), elution buffer (40 mM glutathione, 800 mM NaCl, 5 mM EDTA, 50 mM Tris-pH8.0, 0.1% Triton x-100), dialysis buffer (50 mM Tris pH 7.9, 50 mM NaCl, 2 mM DTT, and 10% glycerol).

[1] = recombinant GST-SENP1, 3 hours, read-out: IC50 to inhibit deSUMOylation of His-JAK2 in vitro

Compound | thermal stabilization of SENP1-C603A proteins (SENP1-C603A) | fold more potency to inhibit deSUMOylation of His-JAK2 in vitro than Mc (SENP1; UA versus Mc) [fold] | IC50 (SENP1; [1]) [µM] | IC50 (SENP1; in vitro, read-out: SENP1 activity was inhibited with IC50) [µM]
C[C@H]1[C@H](C)CC[C@]2(C(=O)O)CC[C@]3(C)C(=CC[C@@H]4[C@@]5(C)CC[C@H](O)C(C)(C)[C@@H]5CC[C@]43C)[C@H]12 [UA, ursolic acid] | no longer stabilized | 3000 | 0.0064 | 
CC1(C)CC[C@]2(C(=O)O)CC[C@]3(C)C(=CC[C@@H]4[C@@]5(C)CC[C@H](O[C@@H]6O[C@H](C(=O)O)[C@@H](O)[C@H](O[C@@H]7OC[C@@H](O)[C@H](O)[C@H]7O)[C@H]6O)C(C)(C)[C@@H]5CC[C@]43C)[C@@H]2C1 [Mc, Momordin Ic] | no longer stabilized |  | 19.9 | 15.4

Source: patent US20230012172A1, “COMPOSITIONS AND METHODS FOR TREATMENT OF PLATINUM-BASED CHEMOTHERAPEUTIC RESISTANT TUMORS” (The George Washington University, priority 2020, published 2023)
